Results as given in the supplement of paper PMC10627819.

Assays:
B. subtilis 168 [1] = assay: fitness (endpoint OD595 vs no drug) (fraction); higher = more growth
Method in brief: (§1)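 Growth medium was TSB, LB Lennox or CY, and plates were kept at 37 °C. Inoculation was at OD595 0.01 in 384-well plates, at 30 µl per well or 55 µl for S. pneumoniae. OD595 was monitored every 30 min for 14 h and background-subtracted using the first reading. Fitness is the optical density on entering stationary phase divided by the robust mean of no-drug controls, with values capped at 1.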

S. aureus Newman [2] = assay: as above
Method in brief: as §1

S. pneumoniae D39V [3] = assay: as above
Method in brief: as §1

B. subtilis 168 [4] = assay: Bliss interaction score (quartile over a dose matrix) (fitness difference); higher = more antagonism (negative = synergy)
Method in brief: (§2)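 Quartiles of the Bliss score were taken over technical, biological and donor/recipient replicates. That score is observed fitness minus the product of the single-drug fitness values, which were inferred from combination data. Fitness itself is OD595 at entry into stationary phase divided by the plate's robust no-drug mean, with a cap at 1.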

S. aureus DSM 20231 = assay: as above
Method in brief: as §2

S. aureus Newman [5] = assay: as above
Method in brief: as §2

S. pneumoniae D39V [6] = assay: as above
Method in brief: as §2
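Wherever Bliss interaction score (quartile over a dose matrix) is given: first quartile when negative (synergy) and third quartile when positive (antagonism).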

CCCCCCCCCC(=O)N[C@@H](Cc1c[nH]c2ccccc12)C(=O)N[C@H](CC(N)=O)C(=O)N[C@@H](CC(=O)O)C(=O)N[C@@H]1C(=O)NCC(=O)N[C@@H](CCCN)C(=O)N[C@@H](CC(=O)O)C(=O)N[C@H](C)C(=O)N[C@@H](CC(=O)O)C(=O)NCC(=O)N[C@H](CO)C(=O)N[C@@H]([C@H](C)CC(=O)O)C(=O)N[C@@H](CC(=O)c2ccccc2N)C(=O)O[C@@H]1C [Daptomycin] + CN[C@@H]1[C@H](O[C@H]2[C@H](O[C@H]3[C@H](O)[C@@H](O)[C@H](N=C(N)N)[C@@H](O)[C@@H]3N=C(N)N)O[C@@H](C)[C@]2(O)C=O)O[C@@H](CO)[C@H](O)[C@H]1O [Streptomycin]
fitness
Settings	partner 1 µg/mL	partner 2 µg/mL	partner 4 µg/mL	partner 8 µg/mL
B. subtilis 168 [1], first compound 0.125 µg/mL	–	0.954	0.651	0.0465
B. subtilis 168 [1], first compound 0.25 µg/mL	–	0.977	–	0.0589
B. subtilis 168 [1], first compound 0.5 µg/mL	–	0.923	–	0.0321
S. aureus Newman [2], first compound 0.125 µg/mL	0.971	0.988	–	–
S. aureus Newman [2], first compound 0.25 µg/mL	0.964	0.985	–	–
S. aureus Newman [2], first compound 0.5 µg/mL	0.986	0.973	–	–
S. pneumoniae D39V [3], first compound 1 µg/mL	–	0.926	0.902	0.825
S. pneumoniae D39V [3], first compound 2 µg/mL	–	0.955	0.909	0.876
S. pneumoniae D39V [3], first compound 4 µg/mL	–	0.95	0.924	0.86

fitness, one replicate
Settings	first compound 1 µg/mL	first compound 2 µg/mL	first compound 4 µg/mL
B. subtilis 168 [1], partner 2 µg/mL	0.654	–	–
B. subtilis 168 [1], partner 4 µg/mL	0.245	–	–
B. subtilis 168 [1], partner 8 µg/mL	0.0183	–	–
S. pneumoniae D39V [3], partner 16 µg/mL	0.795	0.804	0.773

Settings	Bliss interaction score
B. subtilis 168 [4]	-0.0625
S. aureus DSM 20231	0.0838
S. aureus Newman [5]	0.0589
S. pneumoniae D39V [6]	0.103

CCN(CC)CCOC(=O)c1ccc(N)cc1 [Procaine] + CN(C)c1cc(NC(=O)CNC(C)(C)C)c(O)c2c1C[C@H]1C[C@H]3[C@H](N(C)C)C(O)=C(C(N)=O)C(=O)[C@@]3(O)C(O)=C1C2=O [Tigecycline]
fitness
Settings	first compound 85.5 µg/mL	first compound 171 µg/mL	first compound 342 µg/mL
B. subtilis 168 [1], partner 0.039 µg/mL	0.94	0.978	0.929
B. subtilis 168 [1], partner 0.078 µg/mL	0.916	0.96	0.858
B. subtilis 168 [1], partner 0.156 µg/mL	0.895	0.909	0.856
S. aureus Newman [2], partner 0.039 µg/mL	0.955	0.965	0.928
S. aureus Newman [2], partner 0.078 µg/mL	≥ 1	0.986	0.996
S. aureus Newman [2], partner 0.156 µg/mL	≥ 1	≥ 1	0.991
S. pneumoniae D39V [3], partner 0.65 µg/mL	0.974	0.993	1
S. pneumoniae D39V [3], partner 1.3 µg/mL	0.946	0.952	0.957
S. pneumoniae D39V [3], partner 2.6 µg/mL	0.927	0.935	0.932

fitness, B. subtilis 168 [1], one replicate
Settings	first compound 85.5 µg/mL	first compound 171 µg/mL	first compound 342 µg/mL
partner 0.125 µg/mL	≥ 1	0.985	0.974
partner 0.25 µg/mL	0.891	0.917	0.917
partner 0.5 µg/mL	0.913	0.916	0.905

Settings	Bliss interaction score
B. subtilis 168 [4]	-0.0701
S. aureus DSM 20231	0.0953
S. aureus Newman [5]	0.0571
S. pneumoniae D39V [6]	0.0455
